Like-named read-outs stand apart in the source and are kept apart here.
Key:
NCIH460 (lung) cells = assay: Anti-cancer screen (MTT), NCIH460; type: cell-based; conditions: Homo sapiens; for GI50: read-out: Cell growth inhibition NCIH460 (Lung) GI50; for LC50: read-out: Cell growth inhibition NCIH460 (Lung) LC50; for IC (TGI): read-out: Cell growth inhibition NCIH460 (Lung) TGI
How it was run: (§1)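 5×10^4 cells/mL, DMEM + 10% FBS, 24 h attach, 37 °C/5% CO2. Cpds 0.01–100 μM (5 conc., triplicate), 48 h. MTT 3 h → DMSO → A570; T0 plate read at dosing.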

HCT 116 (colon) cells = assay: Anti-cancer screen (MTT), HCT 116; type: cell-based; conditions: Homo sapiens; for GI50: read-out: Cell growth inhibition HCT116 (Colon) GI50; for CC50: read-out: Cell growth inhibition HCT116 (Colon) LC50; for IC (TGI): read-out: Cell growth inhibition HCT116 (Colon) TGI
How it was run: as §1

U251 (glioma) cells = assay: Anti-cancer screen (MTT), U251; type: cell-based; conditions: Homo sapiens; for GI50: read-out: Cell growth inhibition U251 (Glioma) GI50; for LC50 (concentration giving 50% net cell kill relative to the time-zero cell count): read-out: Cell growth inhibition U251 (Glioma) LC50; for IC (TGI): read-out: Cell growth inhibition U251 (Glioma) TGI
How it was run: as §1

[1] = test system: NCIH460, HCT116 and U251 cells; assay: Anti-cancer screen, mean GI50 over cell lines; type: cell-based; conditions: read-out: Cell growth inhibition Mean GI50
How it was run: as §1

[2] = test system: HDAC (Mouse Liver Extract); assay: HDAC inhibition assay using Boc-Lys(Ac)-AMC substrate; type: biochemical; conditions: mouse liver enzyme
How it was run: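 Released AMC measured at 360 nm excitation, 460 nm emission after 15-30 min trypsin development at 37° C. Preceding deacetylation: mouse liver extract with acetylated-lysine AMC substrate, 30 min at 37° C after 5-min preincubation; blanks were buffer alone and substrate alone.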

[3] = NCI-H460, NCIH460, 48 hours, MTT

| SMILES | GI50 (NCIH460 (lung) cells; [3]) | LC50 (NCIH460 (lung) cells; [3]) | IC (TGI) (NCIH460 (lung) cells; [3]) | GI50 (HCT 116 (colon) cells; HCT-116, HCT116, 48 hours, MTT) | CC50 (HCT 116 (colon) cells; HCT-116, HCT116, 48 hours, MTT) | IC (TGI) (HCT 116 (colon) cells; HCT-116, HCT116, 48 hours, MTT) | GI50 (U251 (glioma) cells; U-251, U251, 48 hours, MTT) | LC50 (concentration giving 50% net cell kill relative to the time-zero cell count) (U251 (glioma) cells; U-251, U251, 48 hours, MTT) | IC (TGI) (U251 (glioma) cells; U-251, U251, 48 hours, MTT) | GI50 ([1]; mean over cell lines) | HDAC inhibition % (1 μM) [2] | HDAC inhibition % (10 μM) [2] | IC50 [2] | further results |
| --- | --- | --- | --- | --- | --- | --- | --- | --- | --- | --- | --- | --- | --- | --- |
| O=C(CCCCCNC(=O)/C(=C/c1ccccc1)c1ccccc1)NO [Compound 88, 6-(2,3-Diphenylacrylamido)-N-hydroxy hexanamide] | 21 µM | 91 µM | 57.5 µM | 5 µM | > 100 µM | 22.5 µM | 7.8 µM | 78 µM | 37.5 µM | 11.3 µM | 81.5% | 95.4% |  |  |
| O=C(CCCCCNC(=O)/C(=C/c1c(F)cc(F)cc1F)c1ccc(F)cc1)NO [Compound 89, 6-(2-(4-Fluorophenyl)-3-(2,4,6-trifluorophenyl)acrylamido)-N-hydroxy hexanamide] | 3 µM | 45 µM | 13 µM | 4 µM | 83 µM | 10 µM | 4 µM | 81 µM | 6.7 µM | 3.7 µM | 64.9% | 97.6% | 0.03 µM |  |
| CSc1ccc(/C=C(/C(=O)NCCCCCC(=O)NO)c2ccsc2)cc1 [Compound 90, 6-(2-(Thiophen-3-yl)-3-(4-methylthiophenyl)acrylamido)-N-hydroxy hexanamide] | 0.1 µM | 30 µM | 5 µM | 3 µM | > 100 µM | 6 µM | 0.8 µM | 82 µM | 6.1 µM | 1.3 µM | 78.2% | 98.9% | 0.04 µM |  |
| COc1cc(/C=C(/C(=O)NCCCCCC(=O)NO)c2ccc(F)cc2)ccc1F [Compound 91, 6-(2-(4-Fluorophenyl)-3-(4-fluoro-3-methoxyphenyl)acrylamido)-N-hydroxy hexanamide] | 46 µM | > 100 µM | > 100 µM | 19 µM | > 100 µM | > 100 µM | 2 µM | 92 µM | 30 µM | 22.3 µM | 80.8% | 97.3% |  |  |
| CSc1ccc(/C=C(/C(=O)NCCCCCC(=O)NO)c2ccccc2Cl)cc1 [Compound 95, 6-(2-(2-Chlorophenyl)-3-(4-methylthiophenyl)acrylamido)-N-hydroxy hexanamide] | 6 µM | 72 µM | 40 µM | 3 µM | 66 µM | 14 µM | 0.1 µM | 64 µM | 11 µM | 3 µM | 60.8% | 92.0% | 0.01 µM |  |
| CSc1ccc(/C=C(/C(=O)NCCCCCC(=O)NO)c2ccc(C)cc2)cc1 [Compound 96, 6-(2-(4-Methylphenyl)-3-(4-methylthiophenyl)acrylamido)-N-hydroxy hexanamide] |  |  |  |  |  |  |  |  |  |  | 84.1% | 98.5% | 0.01 µM | GI50 (NCIH460 (lung) cells; NCI-H460, 48 h): 8 µM; LC50 (NCIH460 (lung) cells; NCI-H460, 48 h): 60 µM; IC (TGI) (NCIH460 (lung) cells; NCI-H460, 48 h): 21 µM; GI50 (HCT 116 (colon) cells; HCT-116, 48 h): 6 µM; CC50 (HCT 116 (colon) cells; HCT-116, 48 h): > 100 µM; IC (TGI) (HCT 116 (colon) cells; HCT-116, 48 h): 27 µM; GI50 (U251 (glioma) cells; U-251, 48 h): 8 µM; LC50 (concentration giving 50% net cell kill relative to the time-zero cell count) (U251 (glioma) cells; U-251, 48 h): 60 µM; IC (TGI) (U251 (glioma) cells; U-251, 48 h): 22 µM; GI50 [1]: 7.3 µM |
| CS(=O)(=O)c1ccc(/C=C(/C(=O)NCCCCCC(=O)Nc2ccccc2N)c2ccc(F)cc2)cc1 [Compound 97, N-(2-Aminophenyl)-6-(2-(4-fluorophenyl)-3-(4-methylsulfonyllphenyl)acrylamido)hexanamide] | 56 µM | > 100 µM | > 100 µM | 6.8 µM | > 100 µM | 85 µM | 6.5 µM | 87 µM | 44 µM | 23.1 µM | 10.2% | 34.2% |  |  |
